Test results published in article PMC11576293, “New series of 4,6-diaryl pyrimidines: facile synthesis and antiproliferative activity as dual EGFR/VEGFR-2 inhibitors” (Frontiers in Chemistry, 2024).

Legend:
Format in all cases: cell-based
A498 = experiment: NCI-60 single-dose screen; details: Homo sapiens, single dose 10 µM, '-' = no inhibition, read-out: % Growth Inhibition
Summary of the method: (§1)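 NCI Developmental Therapeutics Program screen across 60 human cancer cell lines from nine tumor types; compounds tested at a single dose of 10 μM.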

CCRF-CEM = experiment: NCI-60 single-dose screen; details: Homo sapiens, single dose 10 µM, '-' = no inhibition, read-out: % Growth Inhibition
Summary of the method: as §1

EKVX = experiment: NCI-60 single-dose screen; details: Homo sapiens, single dose 10 µM, '-' = no inhibition, read-out: % Growth Inhibition
Summary of the method: as §1

HCT-15 = experiment: NCI-60 single-dose screen; details: Homo sapiens, single dose 10 µM, '-' = no inhibition, read-out: % Growth Inhibition
Summary of the method: as §1

HOP-62 = experiment: NCI-60 single-dose screen; details: Homo sapiens, single dose 10 µM, '-' = no inhibition, read-out: % Growth Inhibition
Summary of the method: as §1

KM12 = experiment: NCI-60 single-dose screen; details: Homo sapiens, single dose 10 µM, '-' = no inhibition, read-out: % Growth Inhibition
Summary of the method: as §1

LOX IMVI = experiment: NCI-60 single-dose screen; details: Homo sapiens, single dose 10 µM, '-' = no inhibition, read-out: % Growth Inhibition
Summary of the method: as §1

M14 = experiment: NCI-60 single-dose screen; details: Homo sapiens, single dose 10 µM, '-' = no inhibition, read-out: % Growth Inhibition
Summary of the method: as §1

MALME-3M = experiment: NCI-60 single-dose screen; details: Homo sapiens, single dose 10 µM, '-' = no inhibition, read-out: % Growth Inhibition
Summary of the method: as §1

MCF7 = experiment: NCI-60 single-dose screen; details: Homo sapiens, single dose 10 µM, '-' = no inhibition, read-out: % Growth Inhibition
Summary of the method: as §1

MDA-MB-435 = experiment: NCI-60 single-dose screen; details: Homo sapiens, single dose 10 µM, '-' = no inhibition, read-out: % Growth Inhibition
Summary of the method: as §1

MOLT-4 = experiment: NCI-60 single-dose screen; details: Homo sapiens, single dose 10 µM, '-' = no inhibition, read-out: % Growth Inhibition
Summary of the method: as §1

SF-295 = experiment: NCI-60 single-dose screen; details: Homo sapiens, single dose 10 µM, '-' = no inhibition, read-out: % Growth Inhibition
Summary of the method: as §1

SNB-75 = experiment: NCI-60 single-dose screen; details: Homo sapiens, single dose 10 µM, '-' = no inhibition, read-out: % Growth Inhibition
Summary of the method: as §1

SW-620 = experiment: NCI-60 single-dose screen; details: Homo sapiens, single dose 10 µM, '-' = no inhibition, read-out: % Growth Inhibition
Summary of the method: as §1

T-47D = experiment: NCI-60 single-dose screen; details: Homo sapiens, T47D, single dose 10 µM, '-' = no inhibition, read-out: % Growth Inhibition
Summary of the method: as §1

A-549 = experiment: Antiproliferative assay (MTT); details: Homo sapiens, A549, A-549 (lung), read-out: Antiproliferative activity IC50 ± SEM, A-549
Description: (§2) The MTT test was employed for this investigation ([Hisham et al., 2022]; [El-Sherief et al., 2019]; [Ramadan et al., 2020]). Table 2 presents the four cancer cell lines’ median inhibitory concentration (IC50) and GI50 (average IC50) values.
(§3) The MTT test was employed for this investigation ([Hisham et al., 2022]; [El-Sherief et al., 2019]; [Ramadan et al., 2020]). The IC50 values were derived from dose-response tests. The reported data are derived from at least two independent studies, each comprising three replicates per concentration. See Supplementary Material A1 for more details.
(§4) (in 0.1% DMSO) were added (in 200 μL medium to yield a final concentration of 0.1% v/v) to the wells of plates. A single compound was designated with four wells followed by incubation of plates for 96h at 37°C. After incubation, medium was removed completely from the plates followed by addition of MTT (0.4 mg/mL in medium) to each well and subsequent incubation of plates for 3h. MTT (along with the medium) was removed and DMSO (150μL) was added to each well of the culture plates, followed by vertexing and subsequent measurement of absorbance (at 540 nm) using microplate reader. The data are shown as percentage inhibition of proliferation in comparison with controls containing 0.1% DMSO.
(§5) 4.2.1.2. Assay for antiproliferative effect […]
(§6) (10%) and 1 µg/mL each of aprotinin, leupeptin and pepstatin for 120 min. The purification was performed either at 4 °C or on ice. To record autophosphorylation level, EGFR kinase assay was carried out on the basis of DELFIA/Time-Resolved Fluorometry. The compounds were first
(§7) (1 picture or pasted object on this page, not shown here)

HT-29 = experiment: Antiproliferative assay (MTT); details: Homo sapiens, HT-29 (colon), read-out: Antiproliferative activity IC50 ± SEM, HT-29
Description: as §2, §3, §4, §5, §6, §7

MCF-7 = experiment: Antiproliferative assay (MTT); details: Homo sapiens, MCF7, MCF-7 (breast), read-out: Antiproliferative activity IC50 ± SEM, MCF-7
Description: as §2, §3, §4, §5, §6, §7

Panc-1 = experiment: Antiproliferative assay (MTT); details: Homo sapiens, Panc-1 (pancreatic), read-out: Antiproliferative activity IC50 ± SEM, Panc-1
Description: as §2, §3, §4, §5, §6, §7

Row | Compound | inhibition at 10 µM (A498) | inhibition at 10 µM (CCRF-CEM) | inhibition at 10 µM (EKVX) | inhibition at 10 µM (HCT-15) | inhibition at 10 µM (HOP-62) | inhibition at 10 µM (KM12) | inhibition at 10 µM (LOX IMVI) | inhibition at 10 µM (M14) | inhibition at 10 µM (MALME-3M) | inhibition at 10 µM (MCF7) | inhibition at 10 µM (MDA-MB-435) | inhibition at 10 µM (MOLT-4) | inhibition at 10 µM (SF-295) | inhibition at 10 µM (SNB-75) | inhibition at 10 µM (SW-620) | inhibition at 10 µM (T-47D) | IC50 (A-549) | IC50 (HT-29) | IC50 (MCF-7) | IC50 (Panc-1)
1 | CCCSc1nc(-c2ccc(OC)cc2)cc(-c2cccc(OC)c2)n1 [Compound 18, 6-(3-Methoxyphenyl)-4-(4-methoxyphenyl)-2-(propylthio)pyrimidine] | < 0% | < 0% | < 0% | 8.49% | < 0% | 1.47% | < 0% | 9.08% | < 0% | 17.3% | 5.12% | 6.49% | < 0% | < 0% | < 0% | 13.8% | 45 ± 4 nM | 46 ± 4 nM | 46 ± 4 nM | 44 ± 4 nM
2 | COc1ccc(-c2cc(-c3cccc(OC)c3)nc(SC(C)C)n2)cc1 [Compound 19, 2-(Isopropylthio)-6-(3-methoxyphenyl)-4-(4-methoxyphenyl)pyrimidine] | < 0% | 9.07% | 22.7% | 24.5% | < 0% | 5.72% | 6.05% | < 0% | < 0% | 11.6% | 3.92% | 23.8% | 4.16% | < 0% | < 0% | 24.6% | 29 ± 2 nM | 30 ± 2 nM | 32 ± 3 nM | 30 ± 2 nM
3 | C=CCSc1nc(-c2ccc(OC)cc2)cc(-c2cccc(OC)c2)n1 [Compound 20, 2-(Allylthio)-6-(3-methoxyphenyl)-4-(4-methoxyphenyl)pyrimidine] | < 0% | 3.61% | 4.8% | 5.58% | < 0% | < 0% | 7.36% | 4.9% | < 0% | 12.5% | 1.82% | 12.5% | 3.19% | < 0% | < 0% | 21.5% | 70 ± 6 nM | 72 ± 4 nM | 73 ± 6 nM | 70 ± 6 nM
4 | COc1ccc(-c2cc(-c3ccc(Cl)cc3)nc(SC)n2)cc1OC [Compound 23, 4-(4-Chlorophenyl)-6-(3,4-dimethoxyphenyl)-2-(methylthio)pyrimidine] | < 0% | 17.9% | 23.1% | 28% | < 0% | 25.4% | 15% | 0.3% | < 0% | 23.9% | 18% | 26.7% | 12.4% | < 0% | 1.5% | 25.5% | 48 ± 4 nM | 48 ± 4 nM | 50 ± 4 nM | 47 ± 4 nM
5 | CCSc1nc(-c2ccc(Cl)cc2)cc(-c2ccc(OC)c(OC)c2)n1 [Compound 24, 4-(4-Chlorophenyl)-2-(ethylthio)-6-(3,4-dimethoxyphenyl)pyrimidine] | 1.95% | 19.3% | 20.4% | 30.7% | < 0% | 29.8% | 11.9% | 3.7% | < 0% | 18.5% | 19.7% | 37% | 7.88% | 6.37% | 20.9% | 37.6% | 30 ± 3 nM | 31 ± 3 nM | 33 ± 3 nM | 30 ± 3 nM
6 | CCCSc1nc(-c2ccc(Cl)cc2)cc(-c2ccc(OC)c(OC)c2)n1 [Compound 25, 4-(4-Chlorophenyl)-6-(3,4-dimethoxyphenyl)-2-(propylthio)pyrimidine] | < 0% | 11.2% | 5.09% | 20.9% | < 0% | 25.5% | 1.51% | < 0% | 7.34% | 17.5% | 0.34% | 19.1% | 5.66% | 2.64% | 3.63% | 34.5% | 32 ± 3 nM | 32 ± 3 nM | 34 ± 3 nM | 32 ± 3 nM
7 | COc1ccc(-c2cc(-c3ccc(Cl)cc3)nc(SC(C)C)n2)cc1OC [Compound 26, 4-(4-Chlorophenyl)-2-(isopropylthio)-6-(3,4-dimethoxyphenyl)pyrimidine] | < 0% | 1.08% | 4.59% | 4.73% | < 0% | 1.72% | 4.14% | < 0% | < 0% | 18.1% | 1.25% | 5.51% | < 0% | < 0% | 2.64% | 14.2% | 40 ± 3 nM | 42 ± 3 nM | 42 ± 3 nM | 40 ± 3 nM
8 | C=CCSc1nc(-c2ccc(Cl)cc2)cc(-c2ccc(OC)c(OC)c2)n1 [Compound 27, 2-(Allylthio)-4-(4-chlorophenyl)-6-(3,4-dimethoxyphenyl)pyrimidine] | < 0% | 13.1% | 12.2% | 18.8% | < 0% | 3.43% | 7.11% | 0.06% | < 0% | 17.9% | 6.35% | 28.5% | 3% | < 0% | 1.7% | 23.1% | 56 ± 5 nM | 60 ± 6 nM | 60 ± 6 nM | 58 ± 5 nM
9 | COc1ccc(-c2cc(-c3ccc(Cl)cc3)nc(SCc3ccccc3)n2)cc1OC [Compound 28, 2-(Benzylthio)-4-(4-chlorophenyl)-6-(3,4-dimethoxyphenyl)pyrimidine] | 0.85% | 17.4% | 22.2% | 27.6% | < 0% | 23.2% | 8.32% | 0.81% | < 0% | 12.9% | 15.2% | 32.8% | 7.84% | < 0% | 2.79% | 33% | 39 ± 3 nM | 41 ± 3 nM | 43 ± 3 nM | 40 ± 3 nM
